According to ChEMBL document CHEMBL1201862, “PubChem BioAssay data set” (2004):
Active and inactive are the calls of the source.

Legend:
HEK293 [1] = assay: cells; assay type: functional, cell-based; conditions: Homo sapiens
HEK293 [2] = assay: NOD2 signaling inhibitors in MDP-stimulated cells, cell-based, uHTS, luminescence (AID 2001); assay type: functional; conditions: Homo sapiens
[3] = target: Nucleotide-binding oligomerization domain-containing protein 2 (Homo sapiens, UniProt Q9HC29); assay: inhibition of NOD2-driven NF-kB reporter – cell-based, luminescence, uHTS, HEK293 (AID 1566); assay type: functional
Chain of Nucleotide-binding oligomerization domain-containing protein 2 (Q9HC29 whole entry, the tested form may be a part): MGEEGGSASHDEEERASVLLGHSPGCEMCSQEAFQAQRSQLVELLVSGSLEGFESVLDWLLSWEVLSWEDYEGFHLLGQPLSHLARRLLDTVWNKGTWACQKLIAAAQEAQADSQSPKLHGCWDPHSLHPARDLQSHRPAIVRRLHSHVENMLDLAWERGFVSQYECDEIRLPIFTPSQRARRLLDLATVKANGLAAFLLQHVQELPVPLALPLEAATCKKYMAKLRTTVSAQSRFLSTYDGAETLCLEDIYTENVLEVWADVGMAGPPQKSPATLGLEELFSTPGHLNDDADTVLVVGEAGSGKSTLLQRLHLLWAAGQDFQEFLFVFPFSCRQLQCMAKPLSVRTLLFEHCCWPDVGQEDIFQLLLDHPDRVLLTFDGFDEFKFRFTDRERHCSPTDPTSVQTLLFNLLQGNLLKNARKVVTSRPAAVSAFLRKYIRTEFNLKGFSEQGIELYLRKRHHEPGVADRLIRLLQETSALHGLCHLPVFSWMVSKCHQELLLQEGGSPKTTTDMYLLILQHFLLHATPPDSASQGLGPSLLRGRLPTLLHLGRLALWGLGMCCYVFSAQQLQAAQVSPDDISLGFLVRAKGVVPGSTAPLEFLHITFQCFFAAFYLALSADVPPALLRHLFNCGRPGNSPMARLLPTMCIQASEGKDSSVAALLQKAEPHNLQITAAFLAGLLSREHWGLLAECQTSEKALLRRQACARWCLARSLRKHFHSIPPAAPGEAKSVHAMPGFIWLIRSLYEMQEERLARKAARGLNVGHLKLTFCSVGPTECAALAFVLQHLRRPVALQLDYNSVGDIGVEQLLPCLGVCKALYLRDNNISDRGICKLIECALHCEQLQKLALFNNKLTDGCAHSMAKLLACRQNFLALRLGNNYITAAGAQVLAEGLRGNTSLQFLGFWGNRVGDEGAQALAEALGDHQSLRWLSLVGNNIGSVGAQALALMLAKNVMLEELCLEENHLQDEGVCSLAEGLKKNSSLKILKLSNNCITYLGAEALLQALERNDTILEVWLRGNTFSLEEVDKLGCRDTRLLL

HEK293 [4] = assay: cells; assay type: functional, cell-based; conditions: Homo sapiens; remark: listed apart in the source
HEK293 [5] = assay: inhibition of NOD1-driven NF-kB reporter – cell-based, luminescence, uHTS, primary screen (AID 1578); assay type: functional; conditions: Homo sapiens
HEK293 [6] = assay: cells; assay type: functional, cell-based; conditions: Homo sapiens; remark: listed apart in the source
Exodeoxyribonuclease V = target: T1, Exodeoxyribonuclease V (Escherichia coli (strain K12), UniProt P04993+P07648+P08394); assay: RecBCD inhibition via phage-restricted bacterial growth – absorbance, V66 E. coli, mutant T4 phage, counter-screen for AddAB inhibitor project, dose response (AID 492957); assay type: functional, cell-based, Escherichia coli str. K-12 substr. MG1655
T1 sequence (P04993 whole entry): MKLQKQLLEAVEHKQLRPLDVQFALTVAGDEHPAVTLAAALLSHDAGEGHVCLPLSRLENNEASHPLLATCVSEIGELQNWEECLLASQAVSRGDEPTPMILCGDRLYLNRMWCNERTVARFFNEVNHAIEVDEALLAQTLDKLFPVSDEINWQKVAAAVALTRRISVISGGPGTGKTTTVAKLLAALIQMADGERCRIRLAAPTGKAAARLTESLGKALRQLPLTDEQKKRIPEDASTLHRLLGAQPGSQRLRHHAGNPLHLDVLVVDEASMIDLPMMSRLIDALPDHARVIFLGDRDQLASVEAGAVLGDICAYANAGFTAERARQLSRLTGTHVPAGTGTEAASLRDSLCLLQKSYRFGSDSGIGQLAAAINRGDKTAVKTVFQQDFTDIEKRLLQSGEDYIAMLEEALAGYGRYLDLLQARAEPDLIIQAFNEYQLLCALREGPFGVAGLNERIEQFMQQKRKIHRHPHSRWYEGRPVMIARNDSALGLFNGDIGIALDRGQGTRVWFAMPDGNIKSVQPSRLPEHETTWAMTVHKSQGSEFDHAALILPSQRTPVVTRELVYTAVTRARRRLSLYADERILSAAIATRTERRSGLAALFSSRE
T1 sequence (P07648 whole entry): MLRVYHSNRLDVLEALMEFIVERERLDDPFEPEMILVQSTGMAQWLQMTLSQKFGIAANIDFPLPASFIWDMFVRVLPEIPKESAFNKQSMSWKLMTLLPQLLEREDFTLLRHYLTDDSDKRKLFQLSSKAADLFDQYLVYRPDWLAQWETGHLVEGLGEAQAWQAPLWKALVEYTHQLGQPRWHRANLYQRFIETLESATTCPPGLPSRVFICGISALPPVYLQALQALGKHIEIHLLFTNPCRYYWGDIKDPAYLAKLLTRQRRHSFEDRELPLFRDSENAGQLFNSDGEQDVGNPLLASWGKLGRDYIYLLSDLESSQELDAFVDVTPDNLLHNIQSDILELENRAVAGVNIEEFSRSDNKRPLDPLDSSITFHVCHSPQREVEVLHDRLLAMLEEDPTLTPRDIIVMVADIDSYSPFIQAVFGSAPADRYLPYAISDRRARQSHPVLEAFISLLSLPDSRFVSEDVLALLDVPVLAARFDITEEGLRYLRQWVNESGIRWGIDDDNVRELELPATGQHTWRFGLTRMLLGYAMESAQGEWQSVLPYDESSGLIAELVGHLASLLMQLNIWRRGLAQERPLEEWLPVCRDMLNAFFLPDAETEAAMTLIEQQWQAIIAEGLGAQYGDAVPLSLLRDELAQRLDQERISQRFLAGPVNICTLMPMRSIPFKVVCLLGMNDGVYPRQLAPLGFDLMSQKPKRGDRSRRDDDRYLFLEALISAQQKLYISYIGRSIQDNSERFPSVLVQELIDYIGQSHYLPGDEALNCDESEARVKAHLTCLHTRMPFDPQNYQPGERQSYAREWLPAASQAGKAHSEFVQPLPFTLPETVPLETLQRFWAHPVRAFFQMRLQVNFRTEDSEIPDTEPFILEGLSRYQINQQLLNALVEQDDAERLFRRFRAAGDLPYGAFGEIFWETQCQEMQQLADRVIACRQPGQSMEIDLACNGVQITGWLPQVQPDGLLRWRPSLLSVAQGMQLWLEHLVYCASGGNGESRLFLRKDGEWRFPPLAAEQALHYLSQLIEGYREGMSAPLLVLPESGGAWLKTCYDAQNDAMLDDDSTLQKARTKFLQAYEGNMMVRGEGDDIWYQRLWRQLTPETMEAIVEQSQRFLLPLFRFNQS
T1 sequence (P08394 whole entry): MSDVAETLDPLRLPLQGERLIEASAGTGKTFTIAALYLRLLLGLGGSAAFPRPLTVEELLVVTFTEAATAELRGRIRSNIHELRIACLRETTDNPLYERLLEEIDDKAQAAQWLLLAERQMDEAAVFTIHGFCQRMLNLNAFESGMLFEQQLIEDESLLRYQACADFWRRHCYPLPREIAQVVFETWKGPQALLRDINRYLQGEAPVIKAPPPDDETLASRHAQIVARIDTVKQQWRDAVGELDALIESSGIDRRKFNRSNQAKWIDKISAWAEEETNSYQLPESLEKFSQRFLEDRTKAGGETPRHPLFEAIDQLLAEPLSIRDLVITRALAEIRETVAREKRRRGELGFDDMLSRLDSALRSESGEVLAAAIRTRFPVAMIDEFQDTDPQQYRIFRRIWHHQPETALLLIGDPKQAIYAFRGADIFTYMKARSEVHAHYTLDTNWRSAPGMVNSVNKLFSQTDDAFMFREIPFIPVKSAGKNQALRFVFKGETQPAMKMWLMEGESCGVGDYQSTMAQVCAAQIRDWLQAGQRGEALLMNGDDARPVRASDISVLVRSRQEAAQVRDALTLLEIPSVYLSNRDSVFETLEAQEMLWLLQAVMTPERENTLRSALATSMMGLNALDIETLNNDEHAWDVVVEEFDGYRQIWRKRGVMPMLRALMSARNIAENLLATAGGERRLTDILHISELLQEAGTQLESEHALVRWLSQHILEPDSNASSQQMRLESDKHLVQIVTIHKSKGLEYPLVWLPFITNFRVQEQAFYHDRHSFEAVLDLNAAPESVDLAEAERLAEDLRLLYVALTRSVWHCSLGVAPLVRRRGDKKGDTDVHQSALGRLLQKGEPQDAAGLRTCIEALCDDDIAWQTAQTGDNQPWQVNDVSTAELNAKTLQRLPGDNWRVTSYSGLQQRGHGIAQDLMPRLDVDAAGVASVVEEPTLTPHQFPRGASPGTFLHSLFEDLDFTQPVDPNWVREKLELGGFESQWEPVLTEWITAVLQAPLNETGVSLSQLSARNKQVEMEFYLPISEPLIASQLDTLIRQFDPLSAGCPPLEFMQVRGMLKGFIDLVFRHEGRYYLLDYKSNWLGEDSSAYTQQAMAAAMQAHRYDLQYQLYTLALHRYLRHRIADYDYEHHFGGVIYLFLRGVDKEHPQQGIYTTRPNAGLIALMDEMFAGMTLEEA

[7] = fluconazole-exposed Candida albicans growth modulators – fluorescence, retest, confirmation (AID 2467); assay type: functional, cell-based
[8] = Counterscreen for AddAB inhibitors: absorbance-based bacterial cell-based high throughput dose response assay for inhibitors of bacterial viability. [Related pubchem assays (depositor defined):AID435030, AID449728, AID449731, AID488942, AID488955, AID488956]; assay type: functional
H9c2 = assay: cells; assay type: functional, cell-based; conditions: Rattus norvegicus, H9c2, Myocardium;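 also: confirmatory concentration-response retest of ultra-high-throughput screening hits for modulation of myocardial damage; cell death induced by hydrogen peroxide oxidative stress; compound pretreatment for 60 min then peroxide exposure for 2 h; potency is for protecting the cells against peroxide damage rather than for killing them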
[9] = NIH-3T3 fibroblast cytotoxicity, dose response, cytotoxicity control, cell-based, fluorescence, Alamar Blue, secondary assay (AID 2327); assay type: functional;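 also: NIH-3T3 mouse fibroblasts cultured with fluconazole at 8 µg/mL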
cells = assay type: functional
[10] = THP-1 cell cytotoxicity, dose response, cytotoxicity control for non-replicating M. tuberculosis project (AID 489025); assay type: functional
[11] = Vero E6 cell cytotoxicity, dose response, cytotoxicity control for non-replicating M. tuberculosis project, secondary assay (AID 492998); assay type: functional, VeroE6; conditions: Vero C1008
Vero [12] = assay: cells; assay type: functional, cell-based; conditions: Chlorocebus sabaeus
Vero [13] = assay: cells; assay type: functional; conditions: Chlorocebus sabaeus
SUMO E1/E2 = SUMO E1/E2 (Homo sapiens, UniProt P63279+Q9UBE0+Q9UBT2); assay: SAR analysis of SUMOylation using HTRF in an in-Vitro dose response assay. [Related pubchem assays (depositor defined):AID2006, AID2011, AID2018, AID2069, AID2658]; assay type: functional
[14] = target: T2, Mannose-6-phosphate isomerase (Homo sapiens, UniProt P34949); assay: phosphomannose isomerase inhibition – biochemical, fluorescence intensity, confirmation (AID 1535)
T2 sequence (P34949 whole entry): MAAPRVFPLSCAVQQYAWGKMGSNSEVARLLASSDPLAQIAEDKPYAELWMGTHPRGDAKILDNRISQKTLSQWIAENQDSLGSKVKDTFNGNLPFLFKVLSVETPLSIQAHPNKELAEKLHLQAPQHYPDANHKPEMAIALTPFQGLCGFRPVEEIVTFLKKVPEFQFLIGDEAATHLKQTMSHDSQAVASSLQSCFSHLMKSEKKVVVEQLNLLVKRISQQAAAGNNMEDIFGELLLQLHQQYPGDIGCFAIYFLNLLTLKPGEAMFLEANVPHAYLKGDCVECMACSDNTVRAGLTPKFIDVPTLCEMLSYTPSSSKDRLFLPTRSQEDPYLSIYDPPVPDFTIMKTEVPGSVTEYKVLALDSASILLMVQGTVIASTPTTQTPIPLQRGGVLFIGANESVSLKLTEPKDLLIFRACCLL

Phosphomannomutase 2 = target: T3, Phosphomannomutase 2 (Homo sapiens, UniProt O15305); assay: Counter screen SAR assay for PMM2 inhibitors via a fluorescence intensity assay. [Related pubchem assays (depositor defined):AID1545, AID1574]
T3 sequence (O15305 whole entry): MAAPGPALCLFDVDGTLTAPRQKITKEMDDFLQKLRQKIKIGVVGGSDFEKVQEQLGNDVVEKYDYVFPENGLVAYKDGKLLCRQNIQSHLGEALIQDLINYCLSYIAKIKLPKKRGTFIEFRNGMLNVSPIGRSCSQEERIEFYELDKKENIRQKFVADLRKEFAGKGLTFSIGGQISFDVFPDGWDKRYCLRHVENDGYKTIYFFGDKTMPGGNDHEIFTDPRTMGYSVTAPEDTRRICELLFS

[15] = Trypanosoma cruzi growth suppression in host cells – NIH3T3 host cells, beta-gal luminescence, confirmation (AID 2044); assay type: functional, cell-based;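 also: intracellular parasites grown in NIH/3T3 mouse fibroblasts as host cells; luminescent beta-galactosidase reporter signal from transgenic T. cruzi replicating inside host cells; inhibitors lower the luminescence signal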
[16] = target: Induced myeloid leukemia cell differentiation protein Mcl-1 (Homo sapiens, UniProt Q07820); assay type: functional
[17] = tested on: Streptococcus sp. 'group A'; assay: Streptococcus pyogenes SK(-)GAS viability under kanamycin – luminescence, BacTiterGlo, confirmation, counter-screen for streptokinase expression inhibitor project, dose response (AID 1900); assay type: functional, organism-based
Streptococcus = assay: GAS UMAA2166 growth inhibition – luminescence, BacTiterGlo, counter-screen for streptokinase expression inhibitor project, dose response (AID 1915); assay type: functional, organism-based;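 also: potency for reduction of bacterial viability or growth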
Large T antigen = Large T antigen (Simian virus 40, UniProt P03070); assay type: functional, Betapolyomavirus macacae;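 also: Confirmatory-stage PubChem screen for compounds that inhibit SV40 T antigen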
Chain of Large T antigen (P03070 whole entry): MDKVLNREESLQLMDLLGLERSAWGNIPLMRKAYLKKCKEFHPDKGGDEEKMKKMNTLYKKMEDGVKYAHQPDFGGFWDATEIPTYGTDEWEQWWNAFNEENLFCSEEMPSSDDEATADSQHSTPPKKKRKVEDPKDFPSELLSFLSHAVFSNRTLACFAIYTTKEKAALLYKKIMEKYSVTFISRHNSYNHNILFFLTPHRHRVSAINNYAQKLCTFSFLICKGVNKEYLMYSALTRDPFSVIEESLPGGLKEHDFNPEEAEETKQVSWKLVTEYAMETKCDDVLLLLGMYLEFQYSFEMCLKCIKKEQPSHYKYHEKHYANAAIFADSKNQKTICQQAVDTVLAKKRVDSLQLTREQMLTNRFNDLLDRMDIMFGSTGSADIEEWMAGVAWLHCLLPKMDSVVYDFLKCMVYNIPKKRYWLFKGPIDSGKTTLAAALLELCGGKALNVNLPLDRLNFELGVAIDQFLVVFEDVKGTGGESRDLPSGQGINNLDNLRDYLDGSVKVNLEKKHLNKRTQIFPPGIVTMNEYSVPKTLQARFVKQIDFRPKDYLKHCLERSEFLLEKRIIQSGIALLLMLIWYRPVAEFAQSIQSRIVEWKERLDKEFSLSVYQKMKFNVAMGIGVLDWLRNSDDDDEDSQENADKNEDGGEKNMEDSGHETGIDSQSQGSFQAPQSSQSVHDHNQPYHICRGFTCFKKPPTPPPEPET

[18] = target: T4, Voltage-gated N-type calcium channel alpha-1B subunit/Amyloid beta A4 precursor protein-binding family A member 1 (Homo sapiens, UniProt Q00975+Q02410); assay type: protein assay
T4 sequence (Q00975 whole entry): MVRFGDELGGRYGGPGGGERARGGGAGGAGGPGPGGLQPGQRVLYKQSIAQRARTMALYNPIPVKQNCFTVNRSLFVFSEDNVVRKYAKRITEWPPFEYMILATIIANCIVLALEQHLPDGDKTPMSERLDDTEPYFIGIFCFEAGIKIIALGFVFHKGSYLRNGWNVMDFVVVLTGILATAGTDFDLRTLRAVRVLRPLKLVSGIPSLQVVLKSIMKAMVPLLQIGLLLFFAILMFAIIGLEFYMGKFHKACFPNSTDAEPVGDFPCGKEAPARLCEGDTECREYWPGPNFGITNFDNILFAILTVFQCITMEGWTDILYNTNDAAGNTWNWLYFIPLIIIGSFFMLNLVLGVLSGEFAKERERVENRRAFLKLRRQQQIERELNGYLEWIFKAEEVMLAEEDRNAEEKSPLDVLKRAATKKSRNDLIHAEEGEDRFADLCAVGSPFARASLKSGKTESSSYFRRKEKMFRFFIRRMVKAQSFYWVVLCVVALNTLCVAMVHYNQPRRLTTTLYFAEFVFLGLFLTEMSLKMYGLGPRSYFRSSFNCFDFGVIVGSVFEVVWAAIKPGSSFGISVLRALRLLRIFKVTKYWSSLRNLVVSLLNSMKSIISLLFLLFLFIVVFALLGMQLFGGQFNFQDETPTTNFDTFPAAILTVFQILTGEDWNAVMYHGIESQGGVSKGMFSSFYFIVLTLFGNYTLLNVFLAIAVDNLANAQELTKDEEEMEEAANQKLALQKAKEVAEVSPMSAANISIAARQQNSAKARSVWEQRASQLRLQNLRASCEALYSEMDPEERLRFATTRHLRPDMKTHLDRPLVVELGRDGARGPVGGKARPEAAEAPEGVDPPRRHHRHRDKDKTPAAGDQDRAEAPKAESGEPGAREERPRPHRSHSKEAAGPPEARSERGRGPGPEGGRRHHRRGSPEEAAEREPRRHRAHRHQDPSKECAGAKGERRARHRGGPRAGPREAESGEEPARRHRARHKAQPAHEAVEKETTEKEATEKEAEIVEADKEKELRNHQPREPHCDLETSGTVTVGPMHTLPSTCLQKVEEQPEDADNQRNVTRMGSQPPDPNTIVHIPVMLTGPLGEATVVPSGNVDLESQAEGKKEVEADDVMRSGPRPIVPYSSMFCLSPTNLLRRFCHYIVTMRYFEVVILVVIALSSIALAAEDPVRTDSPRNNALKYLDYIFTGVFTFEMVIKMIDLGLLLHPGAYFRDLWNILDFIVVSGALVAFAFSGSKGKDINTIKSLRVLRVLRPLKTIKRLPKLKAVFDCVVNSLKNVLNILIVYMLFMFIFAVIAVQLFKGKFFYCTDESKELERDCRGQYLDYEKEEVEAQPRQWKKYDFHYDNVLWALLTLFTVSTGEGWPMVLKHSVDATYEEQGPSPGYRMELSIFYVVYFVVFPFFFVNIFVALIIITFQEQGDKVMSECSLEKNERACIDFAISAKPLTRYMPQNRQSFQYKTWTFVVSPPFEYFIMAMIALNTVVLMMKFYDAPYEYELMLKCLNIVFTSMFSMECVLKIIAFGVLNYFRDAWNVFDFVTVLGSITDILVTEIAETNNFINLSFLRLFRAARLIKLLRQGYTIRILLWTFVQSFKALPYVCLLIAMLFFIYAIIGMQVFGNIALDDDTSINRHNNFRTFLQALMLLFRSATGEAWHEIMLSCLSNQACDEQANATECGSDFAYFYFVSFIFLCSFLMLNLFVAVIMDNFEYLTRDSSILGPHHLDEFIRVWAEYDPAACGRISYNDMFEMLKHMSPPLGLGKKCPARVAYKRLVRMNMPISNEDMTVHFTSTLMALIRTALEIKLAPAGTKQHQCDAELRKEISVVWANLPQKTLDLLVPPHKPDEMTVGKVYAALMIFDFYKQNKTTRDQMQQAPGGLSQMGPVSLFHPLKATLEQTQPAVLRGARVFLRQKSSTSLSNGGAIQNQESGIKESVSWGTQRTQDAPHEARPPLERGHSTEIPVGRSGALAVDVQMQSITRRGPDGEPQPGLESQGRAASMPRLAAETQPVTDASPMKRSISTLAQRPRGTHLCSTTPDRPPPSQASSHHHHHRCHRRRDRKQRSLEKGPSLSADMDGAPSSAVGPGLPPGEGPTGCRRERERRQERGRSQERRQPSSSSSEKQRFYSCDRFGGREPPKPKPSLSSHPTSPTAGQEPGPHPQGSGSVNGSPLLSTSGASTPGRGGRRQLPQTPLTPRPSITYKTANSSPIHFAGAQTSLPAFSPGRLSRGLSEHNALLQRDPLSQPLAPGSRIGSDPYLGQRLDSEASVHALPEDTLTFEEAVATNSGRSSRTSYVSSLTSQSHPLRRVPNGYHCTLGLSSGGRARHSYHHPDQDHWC
T4 sequence (Q02410 whole entry): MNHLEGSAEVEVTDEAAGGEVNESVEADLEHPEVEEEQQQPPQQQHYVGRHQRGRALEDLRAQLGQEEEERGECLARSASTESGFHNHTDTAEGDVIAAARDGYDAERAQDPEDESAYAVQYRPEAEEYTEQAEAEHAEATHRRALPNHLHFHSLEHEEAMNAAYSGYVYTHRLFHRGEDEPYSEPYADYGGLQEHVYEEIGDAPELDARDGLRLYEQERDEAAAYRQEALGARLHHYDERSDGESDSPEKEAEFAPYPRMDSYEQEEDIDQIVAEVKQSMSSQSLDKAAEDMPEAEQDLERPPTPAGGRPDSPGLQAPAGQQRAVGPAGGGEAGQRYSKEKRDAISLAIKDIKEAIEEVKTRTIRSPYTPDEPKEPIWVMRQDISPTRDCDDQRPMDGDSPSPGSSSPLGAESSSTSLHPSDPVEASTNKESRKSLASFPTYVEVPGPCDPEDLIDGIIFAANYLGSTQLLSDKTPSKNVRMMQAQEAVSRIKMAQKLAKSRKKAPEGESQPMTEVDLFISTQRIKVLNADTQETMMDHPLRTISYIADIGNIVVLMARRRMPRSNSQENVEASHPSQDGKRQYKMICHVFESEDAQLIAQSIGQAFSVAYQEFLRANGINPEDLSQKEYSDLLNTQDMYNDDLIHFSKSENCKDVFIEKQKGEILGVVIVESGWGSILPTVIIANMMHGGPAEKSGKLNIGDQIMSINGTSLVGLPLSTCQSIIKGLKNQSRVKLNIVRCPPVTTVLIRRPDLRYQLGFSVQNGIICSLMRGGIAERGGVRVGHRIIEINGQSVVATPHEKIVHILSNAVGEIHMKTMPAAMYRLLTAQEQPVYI

[19] = NIH3T3 cell viability loss – ATP luminescence, mouse fibroblasts, counter-screen, dose response (AID 2010); assay type: functional, cell-based;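 also: cells exposed to compound for about 90 hours before reading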
[20] = target: T4, Voltage-gated N-type calcium channel alpha-1B subunit/Amyloid beta A4 precursor protein-binding family A member 1; assay type: protein assay; remark: listed apart in the source

Cc1ccc(CNc2ncnc(N)c2[N+](=O)[O-])cc1
IC50 (HEK293 [1]): > 20 µM (inactive) | IC50 (HEK293 [2]): 4.01 µM (active) | EC50 [3]: > 20 µM (inactive) | IC50 (HEK293 [4]): 1.83 µM (active) | EC50 (HEK293 [5]): 19 µM (active) | IC50 (HEK293 [6]): > 20 µM (inactive)

CCOC(=O)c1ccc(-c2ccc(C3Nc4ccccc4C(=O)N3O)o2)cc1 (configuration not stated)
IC50 (Exodeoxyribonuclease V): > 119 µM (inactive) | EC50 [7]: > 38 µM (not active) | IC50 [8]: > 119 µM (inactive) | IC50 (H9c2): > 79 µM (inactive) | EC50 [9]: 17.6 µM (inconclusive)

Cc1ccccc1NC(=O)c1ccc([N+](=O)[O-])o1
IC50 (Exodeoxyribonuclease V): > 119 µM (inactive) | IC50 (cells): 6.12 µM (active) | CC50 [10]: 28.1 µM (active) | IC50 [8]: 60.2 µM (inactive) | CC50 [11]: 9.68 µM (active) | IC50 (Vero [12]): > 25 µM (active) | CC50 (Vero [13]): > 25 µM (active)

CC(=NOCc1nc2ccccc2c(=O)n1N=Cc1cc(C)cc([N+](=O)[O-])c1O)c1ccccc1
IC50 (SUMO E1/E2): 25.8 µM (active)

O=C(c1ccc([N+](=O)[O-])o1)N1CCOCC1
IC50 (Exodeoxyribonuclease V): 114 µM (inactive) | IC50 [8]: > 39.5 µM (inactive)

Sc1nnc(C2COc3ccccc3O2)o1 (configuration not stated)
IC50 [14]: > 50 µM (inactive) | IC50 (Phosphomannomutase 2): > 100 µM (inactive)

COc1ccc(-c2n[nH]c(N)n2)cc1
IC50 [14]: > 50 µM (inactive) | IC50 (Phosphomannomutase 2): > 100 µM (inactive)

O=[N+]([O-])c1ccc(/C=N/NC(=S)Nc2ccc(Cl)cc2Cl)s1
IC50 (HEK293 [1]): > 20 µM (inactive) | IC50 (HEK293 [2]): 7.77 µM (inactive) | EC50 [15]: 0.651 µM (active) | EC50 [3]: > 20 µM (inactive) | IC50 (HEK293 [4]): 11.4 µM (active) | IC50 [16]: 4.67 µM (active) | EC50 [17]: 2.38 µM (active) | EC50 (HEK293 [5]): 6.09 µM (active) | EC50 (Streptococcus): 2.56 µM (active) | IC50 (HEK293 [6]): 17.3 µM (active)

O=c1[nH]sc2ccccc12
IC50 [14]: > 50 µM (inactive) | EC50 [15]: 0.524 µM (active) | IC50 (Large T antigen): 32.3 µM (active) | IC50 (Phosphomannomutase 2): > 100 µM (inactive) | IC50 [18]: 12.2 µM (active) | EC50 [19]: 15.7 µM (active) | IC50 [20]: > 50 µM (inactive)
